Reference: patent US20250280696A1, “FORMULATIONS AND USES THEREOF IN OPTOELECTRONIC FIELD” (Zhejiang Brilliant Optoelectronic Technology Co.,Ltd., priority 2022, published 2025)

Columns and labels:
Format in all cases: physicochemical
[1] = UV stability of compounds in toluene (absorbance decay, t80); conditions: for Times t80: UV LEDs 365 nm & 255 nm, 12 cm, time until absorbance decayed to 80% of initial value; for UV stability compared with the unfluorinated compound 20: UV irradiation
Protocol: The UV stability of the compounds were tested as follows:
The compound was dissolved in the toluene with a concentration of 1×10^5 mol/L. 3 mL solution was added to the cuvette with a lid and the lid was screwed on tightly, then the cuvette was placed in the ultraviolet-visible spectrophotometer to test the absorption spectrum, the absorbance of the maximum absorption peak was recorded as the initial value. The cuvette was placed at a distance of 12 cm from the UV LEDs (365 nm & 255 nm), irradiated for a period and tested its absorption spectrum, then continued to be irradiated after the test, and repeated until the absorbance decayed to 80% of its initial value, the time was recorded as t80.

[2] = Absorption spectrum, emission spectrum and extinction coefficient in toluene solution; conditions: for Molar extinction coefficient of the toluene solution: at maximum absorption peak
Protocol: The extinction coefficients of the compounds and their absorption and emission spectrums in the solution were determined as follows: • 1. The compound with a certain amount of substance concentration in the toluene was prepared in a volumetric flask. • 2. The absorption spectrum of the solution was measured by using an ultraviolet-visible spectrophotometer (Puxi T9s) to obtain the absorption peak wavelength. • 3. The absorbance of the maximum absorption peak divided by the amount of substance concentration is the molar extinction coefficient of the compound. • 4. The emission spectrum of the solution was measured by using a fluorescent spectroscope (Hitachi, F-4700 FL Spectrophotometer) to obtain the emission peak wavelength.
(§1) The extinction coefficients of the compounds and their absorption and emission peaks in the solution and film are shown in Table 3.

[3] = Absorption and emission spectrum in spin-coated film; conditions: for Red shift of the spectrum in the film relative to the solution: film vs toluene solution; for Absorption peak of the film / Emission peak of the film: spin-coated film on glass
Protocol: The Absorption and emission spectrums of the compounds in the film were determined as follows: • 1. The compound with a certain concentration in the toluene was prepared. • 2. The prepared toluene solution was dropped onto a clean glass substrate. • 3. Spin-coating, and then heating at the 80° C. for 1 min. • 4. The absorption spectrum of the film was measured by using an ultraviolet-visible spectrophotometer (Puxi T9s) to obtain the absorption peak wavelength. • 5. The emission spectrum of the film was measured by using a fluorescent spectroscope (Hitachi, F-4700 FL Spectrophotometer) to obtain the emission peak wavelength.
as §1

[4] = Solubility of compounds in toluene; conditions: per 100 g toluene
Protocol: The solubility of the compounds in the toluene were determined as follows: • 1. 1000 mg toluene was placed in the transparent glass sample bottle. • 2. A certain mass of the compound was added into the toluene, and oscillated until completely dissolved. • 3. After the compound was completely dissolved, a certain mass of the compound was further added into the toluene, and oscillated. • 4. The above steps were repeated until the compound wasn't dissolved any more. • 5. The total mass of the compound added was recorded and the solubility was obtained by calculation.

SMILES | Times t80 [1] | Molar extinction coefficient of the toluene solution [2] | Red shift of the spectrum in the film relative to the solution [3] | Solubilities(/100 g toluene) [4] | UV stability compared with the unfluorinated compound 20 [1] | Absorption peak of the toluene solution [2] | Emission peak of the toluene solution [2] | Absorption peak of the film [3] | Emission peak of the film [3]
Cc1cccc(C)c1N(c1ccc(C(C)(C)C)cc1)c1cc(N(c2ccc(C(C)(C)C)cc2)c2c(C)cccc2C)c2ccc3c(N(c4ccc(C(C)(C)C)cc4)c4c(C)cccc4C)cc(N(c4ccc(C(C)(C)C)cc4)c4c(C)cccc4C)c4ccc1c2c43 [Compound 4] | 195 min | 30000 L/mol | very small red shift | 4.2 g |  |  |  |  | 
Cc1cccc(C)c1N(c1cc(C(C)(C)C)cc(C(C)(C)C)c1)c1cc(N(c2cc(C(C)(C)C)cc(C(C)(C)C)c2)c2c(C)cccc2C)c2ccc3c(N(c4cc(C(C)(C)C)cc(C(C)(C)C)c4)c4c(C)cccc4C)cc(N(c4cc(C(C)(C)C)cc(C(C)(C)C)c4)c4c(C)cccc4C)c4ccc1c2c43 [Compound 7] | 280 min | 56000 L/mol | very small red shift | 4.6 g |  |  |  |  | 
CC(C)c1cccc(C(C)C)c1N(c1ccc(C(C)(C)C)cc1)c1cc(N(c2ccc(C(C)(C)C)cc2)c2c(C(C)C)cccc2C(C)C)c2ccc3c(N(c4ccc(C(C)(C)C)cc4)c4c(C(C)C)cccc4C(C)C)cc(N(c4ccc(C(C)(C)C)cc4)c4c(C(C)C)cccc4C(C)C)c4ccc1c2c43 [Compound 8] |  |  |  | >20 g |  |  |  |  | 
CC(C)c1cccc(C(C)C)c1N(c1cc(C(C)(C)C)cc(C(C)(C)C)c1)c1cc(N(c2cc(C(C)(C)C)cc(C(C)(C)C)c2)c2c(C(C)C)cccc2C(C)C)c2ccc3c(N(c4cc(C(C)(C)C)cc(C(C)(C)C)c4)c4c(C(C)C)cccc4C(C)C)cc(N(c4cc(C(C)(C)C)cc(C(C)(C)C)c4)c4c(C(C)C)cccc4C(C)C)c4ccc1c2c43 [Compound 9] |  |  |  | >20 g |  |  |  |  | 
CCc1cccc(CC)c1N(c1ccc(C(C)(C)C)cc1)c1cc(N(c2ccc(C(C)(C)C)cc2)c2c(CC)cccc2CC)c2ccc3c(N(c4ccc(C(C)(C)C)cc4)c4c(CC)cccc4CC)cc(N(c4ccc(C(C)(C)C)cc4)c4c(CC)cccc4CC)c4ccc1c2c43 [Compound 11] | 257 min | 53000 L/mol | very small red shift | 25.9 g |  |  |  |  | 
Cc1ccccc1N(c1ccc(C(C)(C)C)cc1C)c1cc(N(c2ccccc2C)c2ccc(C(C)(C)C)cc2C)c2ccc3c(N(c4ccccc4C)c4ccc(C(C)(C)C)cc4C)cc(N(c4ccccc4C)c4ccc(C(C)(C)C)cc4C)c4ccc1c2c43 [Compound 12] |  |  |  | >3 g |  |  |  |  | 
Cc1cc2ccccc2cc1N(c1ccc(C(C)(C)C)cc1)c1cc(N(c2ccc(C(C)(C)C)cc2)c2cc3ccccc3cc2C)c2ccc3c(N(c4ccc(C(C)(C)C)cc4)c4cc5ccccc5cc4C)cc(N(c4ccc(C(C)(C)C)cc4)c4cc5ccccc5cc4C)c4ccc1c2c43 [Compound 13] |  |  |  | >2.5 g |  |  |  |  | 
Cc1cc2ccccc2c(C)c1N(c1ccc(C(C)(C)C)cc1)c1cc(N(c2ccc(C(C)(C)C)cc2)c2c(C)cc3ccccc3c2C)c2ccc3c(N(c4ccc(C(C)(C)C)cc4)c4c(C)cc5ccccc5c4C)cc(N(c4ccc(C(C)(C)C)cc4)c4c(C)cc5ccccc5c4C)c4ccc1c2c43 [Compound 14] |  |  |  | >2 g |  |  |  |  | 
Cc1cccc(C)c1N(c1ccc(C(F)(F)F)cc1)c1cc(N(c2ccc(C(F)(F)F)cc2)c2c(C)cccc2C)c2ccc3c(N(c4ccc(C(F)(F)F)cc4)c4c(C)cccc4C)cc(N(c4ccc(C(F)(F)F)cc4)c4c(C)cccc4C)c4ccc1c2c43 [Compound 15] |  |  |  | >4 g |  |  |  |  | 
Fc1ccc(N(c2ccccc2)c2cc(N(c3ccccc3)c3ccc(F)cc3)c3ccc4c(N(c5ccccc5)c5ccc(F)cc5)cc(N(c5ccccc5)c5ccc(F)cc5)c5ccc2c3c54)cc1 [Compound 16] | 227 min | 37000 L/mol | large red shift | >1.5 g | greatly improved | 466 nm | 493 nm | 469 nm | 551 nm
Fc1cccc(F)c1N(c1ccccc1)c1cc(N(c2ccccc2)c2c(F)cccc2F)c2ccc3c(N(c4ccccc4)c4c(F)cccc4F)cc(N(c4ccccc4)c4c(F)cccc4F)c4ccc1c2c43 [Compound 17] |  | 18000 L/mol | large red shift | >1 g | greatly improved | 439 nm | 462 nm | 445 nm | 496 nm
Cc1cccc(C)c1N(c1nc(-c2ccccc2)nc(-c2ccccc2)n1)c1cc(C(C)C)c2ccc3c(N(c4nc(-c5ccccc5)nc(-c5ccccc5)n4)c4c(C)cccc4C)cc(C(C)C)c4ccc1c2c43 [Compound 18] |  |  |  | >1 g |  |  |  |  | 
Cc1cccc(C)c1N(c1ncc2ccccc2n1)c1cc(C(C)C)c2ccc3c(N(c4ncc5ccccc5n4)c4c(C)cccc4C)cc(C(C)C)c4ccc1c2c43 [Compound 19] |  |  |  | >1 g |  |  |  |  | 
c1ccc(N(c2ccccc2)c2cc(N(c3ccccc3)c3ccccc3)c3ccc4c(N(c5ccccc5)c5ccccc5)cc(N(c5ccccc5)c5ccccc5)c5ccc2c3c54)cc1 [Compound 20] | 188 min | 23000 L/mol | large red shift | >1.5 g |  | 465 nm | 488 nm | 482 nm | 561 nm
CC(C)(C)c1ccc(N(c2ccccc2)c2cc(N(c3ccccc3)c3ccc(C(C)(C)C)cc3)c3ccc4c(N(c5ccccc5)c5ccc(C(C)(C)C)cc5)cc(N(c5ccccc5)c5ccc(C(C)(C)C)cc5)c5ccc2c3c54)cc1 [Compound 21] |  | 40000 L/mol | large red shift | >3 g |  | 469 nm | 495 nm | 472 nm | 546 nm
CCCCCCCCc1ccc(-c2cc(C(C)C)ccc2N(c2cc(F)c(F)c(F)c2)c2cc(N(c3cc(F)c(F)c(F)c3)c3ccc(C(C)C)cc3-c3ccc(CCCCCCCC)cc3)c3ccc4c(N(c5cc(F)c(F)c(F)c5)c5ccc(C(C)C)cc5-c5ccc(CCCCCCCC)cc5)cc(N(c5cc(F)c(F)c(F)c5)c5ccc(C(C)C)cc5-c5ccc(CCCCCCCC)cc5)c5ccc2c3c54)cc1 [Compound 22] | 377 min | 59000 L/mol | very small red shift | >15 g |  |  |  |  | 490 nm
CCCCCCCCc1ccc(-c2cc(N(c3ccc(C(C)(C)C)cc3)c3ccc(C(C)(C)C)cc3)ccc2N(c2cc(F)c(F)c(F)c2)c2cc(N(c3cc(F)c(F)c(F)c3)c3ccc(N(c4ccc(C(C)(C)C)cc4)c4ccc(C(C)(C)C)cc4)cc3-c3ccc(CCCCCCCC)cc3)c3ccc4c(N(c5cc(F)c(F)c(F)c5)c5ccc(N(c6ccc(C(C)(C)C)cc6)c6ccc(C(C)(C)C)cc6)cc5-c5ccc(CCCCCCCC)cc5)cc(N(c5cc(F)c(F)c(F)c5)c5ccc(N(c6ccc(C(C)(C)C)cc6)c6ccc(C(C)(C)C)cc6)cc5-c5ccc(CCCCCCCC)cc5)c5ccc2c3c54)cc1 [Compound 25] |  | 51000 L/mol | very small red shift | >10 g |  |  |  |  | 
CC(C)(C)c1ccc2c(c1)c1cc(C(C)(C)C)cc3c1n2-c1cccc2c1B3c1cc3c4ccccc4c4ccccc4c3c3c4c5c6ccccc6c6ccccc6c5ccc4n-2c13 [Compound E2, reference compound] |  | 48000 L/mol |  | >0.7 g |  |  |  |  | 
CC(C)(C)c1ccc2c(c1)B1c3c(c4c5c(c3-n3c6ccc(C(C)(C)C)cc6c6cc(C(C)(C)C)cc1c63)Oc1ccc(C(C)(C)C)cc1B5c1cc(C(C)(C)C)cc3c5cc(C(C)(C)C)ccc5n-4c13)O2 [Compound E4, reference compound] |  | 27000 L/mol |  | >0.7 g |  | 589 nm | 613 nm |  | 
